Data from US10329302B2, “Bicyclic-fused heteroaryl or aryl compounds” (Pfizer Inc., priority 2014, dated 2019).

Assays:
Female Lewis rats = experiment: In Vivo Rat Collagen-Induced Arthritis Model; settings: for days on which hind paw swelling was significantly reduced (t-test, p<0.05 vs. vehicle): CIA Lewis rats, paw volume by plethysmograph
Experimental: In Vivo Rat Collagen-Induced Arthritis Model.
Efficacy of IRAK4 compounds of the present invention was also evaluated in a rat in vivo model of rheumatoid arthritis (M. Hegen, J. C. Keith, Jr, M. Collins, C. L. Nickerson-Nutter, Ann. Rheum. Dis. 2008, 67, 1505-1515). An exemplary protocol for this in vivo model follows.
Female Lewis rats, approximately 7 weeks old, were immunized with an emulsion of type II collagen (CII) and incomplete Freund's adjuvant (IFA) on day 0 and received a boost of CII/IFA on day 7. Hind paw volume increase was taken by plethysmograph. Animals were randomly enrolled into treatment groups based on the development of disease. Beginning on day 11 post immunization, rats were enrolled into random treatment groups based on an increase in a single hind paw volume compared to day 7 post immunization baseline measurements.
Ten rats were enrolled per treatment group with the exception of the naive control group, which contained two rats. Day 0 was designated as the first treatment day, and paw measurements are taken daily by plethysmograph. The rats were weighed on a daily basis.
IRAK4 inhibitors are efficacious in the Lewis rat model of collagen-induced arthritis.

serum TNF = experiment: In Vivo Mouse LPS/D-Gal Challenge Model; settings: oral
Experimental: In Vivo Mouse LPS/D-Gal Challenge Model.
Efficacy of IRAK4 compounds of the present invention was also evaluated in an in vivo mouse model of endotoxin induced (Lipopolysaccharide (LPS)) inflammation. See: S. Copeland, H. W. Warren, S. F. Lowry, S. E. Calvano, and D. Remick, Clin. Diagn. Lab. Immnol. 2005, 12(1), 60-67. An exemplary protocol for this in vivo model follows.
Female C57/BL6 mice, 8 to 10 weeks old, are orally administered either vehicle or formulated IRAK-4 compound 1 hour prior to the challenge. Vehicle or IRAK4 compound is administered by oral gavage at a volume of 10 mL/kg. One hour post oral delivery of vehicle or compound, the animals are challenged with an intraperitoneal injection (IP) of a solution containing 1 μg/mL LPS and 80 mg/mL D-gal. Each mouse is injected with […] of the solution, for a final challenge dose of 100 ng LPS and 8 mg D-gal. Ninety minutes post LPS/D-gal challenge, animals are euthanized and blood collected. Blood is allowed to clot at room temperature and serum is separated by centrifugation and stored at −80° C. for analysis. Serum TNF and IL-6 are measured by Meso Scale Discovery (MSD) multiplex platform.
The groups consisted of N=10 animals/group. Naïve animals and vehicle control groups were run with each study. Mean cytokine data was plotted and students T-test was performed to calculate significance (t-test, p<0.05 vs. vehicle) of IRAK4 treated group vs. vehicle treated group. Percent inhibition of cytokine induction was calculated for IRAK4 treated group vs. vehicle treated group.
Table 4 contains data from multiple studies with columns for Compound, Dose in mg/kg (mpk) and % inhibition of serum TNF. In cases where doses of certain compounds were repeated in multiple experiments, the average percent inhibition of TNF and standard deviation is shown in the table.

[1] = target: human IRAK4 kinase domain (aa 154-460) (Homo sapiens (Human), UniProt Q9NWZ3); experiment: IRAK4 Enzymatic DELFIA Assay, Protocol B; assay type: biochemical; settings: human IRAK4 kinase domain (aa 154-460), 0.6 mM ATP (KM); read-out: IRAK4 DELFIA Protocol B IC50
Sequence of human IRAK4 kinase domain (aa 154-460) (Q9NWZ3 154-460): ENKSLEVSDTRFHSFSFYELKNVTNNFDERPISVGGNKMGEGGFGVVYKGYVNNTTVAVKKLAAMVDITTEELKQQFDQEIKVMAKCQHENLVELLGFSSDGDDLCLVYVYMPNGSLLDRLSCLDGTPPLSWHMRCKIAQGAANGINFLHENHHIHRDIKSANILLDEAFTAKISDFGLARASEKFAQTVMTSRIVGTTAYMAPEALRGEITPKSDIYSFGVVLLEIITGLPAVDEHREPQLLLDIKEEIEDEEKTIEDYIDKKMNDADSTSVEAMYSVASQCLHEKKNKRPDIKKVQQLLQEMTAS
Source text: IRAK4 Enzymatic DELFIA Assay, Protocol B.

[2] = target: human IRAK4 FL (Full Length) (Homo sapiens (Human), UniProt Q9NWZ3); experiment: IRAK4 Enzymatic DELFIA Assay, Protocol A; assay type: biochemical; settings: human IRAK4 FL, 0.6 mM ATP (KM); read-out: IRAK4 DELFIA Protocol A IC50
Sequence of human IRAK4 FL (Full Length) (Q9NWZ3 whole entry): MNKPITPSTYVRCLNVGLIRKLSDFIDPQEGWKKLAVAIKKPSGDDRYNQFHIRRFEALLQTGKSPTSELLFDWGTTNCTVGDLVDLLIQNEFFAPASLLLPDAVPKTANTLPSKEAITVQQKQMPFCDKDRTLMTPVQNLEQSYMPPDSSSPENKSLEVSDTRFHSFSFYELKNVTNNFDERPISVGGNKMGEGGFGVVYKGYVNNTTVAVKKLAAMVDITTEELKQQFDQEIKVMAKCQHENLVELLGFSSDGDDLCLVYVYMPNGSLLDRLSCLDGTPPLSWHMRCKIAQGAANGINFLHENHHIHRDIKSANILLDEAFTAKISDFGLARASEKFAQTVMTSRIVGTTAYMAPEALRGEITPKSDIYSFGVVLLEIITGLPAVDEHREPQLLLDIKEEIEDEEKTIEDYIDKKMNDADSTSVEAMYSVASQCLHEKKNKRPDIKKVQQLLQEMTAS

[3] = system: R848-induced TNFα production by human peripheral blood mononuclear cells (PBMCs); experiment: R848 Induced TNFα in Human PBMC Assay; assay type: cell-based; settings: Homo sapiens, PBMC, 3 h, read-out: R848-induced TNFa PBMC IC50 (nM)
Source text: R848 Induced TNFα in Human PBMC Assay.
This protocol is for R848-induced TNFα production by human peripheral blood mononuclear cells (PBMCs). […] The assay is used to assess cell-based potency of small molecule inhibitors of IRAK4 in the absence of serum.
The PBMCs in the interphase layer were collected and washed with PBS via centrifugation multiple times until the supernatant is clear. The purified PBMCs were re-suspended in RPMI (Roswell Park Memorial Institute) media (Sigma-Aldrich).
For the assay, a compound dilution plate containing a top concentration of 4 mM compound in DMSO was serially diluted 4-fold for 11 times. 250 nL of the compound dilution plate was spotted into a 384-well, flat bottom with lid, TC-treated, black with clear bottom, sterile, polystyrene plate (Corning Life Sciences).
10 μL of anti-TNFα antibody labeled with MSD SULFO-TAG at 50 μg/mL was added to each well and allowed to incubate overnight at 4° C.

Structure (SMILES)	IC50 [1] [nM]	also measured
Cc1ccc(-n2nc(C(C)(C)C)cc2NC(=O)Nc2ccc(OCCN3CCOCC3)c3ccccc23)cc1 [BIRB796]	–	days on which hind paw swelling was significantly reduced (t-test, p<0.05 vs. vehicle) (Female Lewis rats; 30 mg/kg PO, QD, positive control (p38 inhibitor)): Day 1-Day 8
CC(C)Oc1cc2c(OC[C@@H]3CCC(=O)N3)nccc2cc1C(N)=O [Example 26, 1-{[(2S)-5-oxopyrrolidin-2-yl]methoxy}-7-(propan-2-yloxy)isoquinoline-6-carboxamide]	–	hind paw swelling in CIA rats (Female Lewis rats; 10 mg/kg PO, BID): transiently significant reduction in hind paw swelling only on Day 5 and Day 6 post treatment; days on which hind paw swelling was significantly reduced (t-test, p<0.05 vs. vehicle) (Female Lewis rats; 30 mg/kg PO, BID, therapeutic treatment for 8 days): Day 2-Day 8; days on which hind paw swelling was significantly reduced (t-test, p<0.05 vs. vehicle) (Female Lewis rats; 100 mg/kg PO, BID, therapeutic treatment for 8 days): Day 1-Day 8 (end); hind paw swelling in CIA rats (Female Lewis rats; therapeutic treatment BID daily for 8 days, t-test p<0.05 vs. vehicle): reduced the hind paw swelling in CIA rats significantly; % inhib TNF (serum TNF; Dose 10 mpk): 27 (±19) %; % inhib TNF (serum TNF; Dose 30 mpk): 41 (±17) %; % inhib TNF (serum TNF; Dose 100 mpk): 78 (±23) %
CC(C)Oc1cc2c(OC[C@@H]3CCN3C(=O)CC#N)nccc2cc1C(N)=O [Example 73, 1-{[(2S)-1-(cyanoacetyl)azetidin-2-yl]methoxy}-7-(propan-2-yloxy)isoquinoline-6-carboxamide]	1160	IC50 [2]: 4360 nM; IC50 [3]: 1590 nM
CC(C)Oc1cc2c(O[C@@H]3CC[C@H]4CC(=O)N[C@H]43)nccc2cc1C(N)=O [Example 130, 1-{[(3aS,6R,6aR)-2-oxooctahydrocyclopenta[b]pyrrol-6-yl]oxy}-7-(propan-2-yloxy)isoquinoline-6-carboxamide]	417	–
CC(C)Oc1cc2c(OCC3CCNC(=O)C3)nccc2cc1C(N)=O (stereo not shown) [Example 138, 1-[(2-oxopiperidin-4-yl)methoxy]-7-(propan-2-yloxy)isoquinoline-6-carboxamide]	1040	–
CC(C)Oc1cc2c(OC[C@]34CNC[C@H]3C4)nccc2cc1C(N)=O [Example 139, 1-[(1S,5S)-3-azabicyclo[3.1.0]hex-1-ylmethoxy]-7-(propan-2-yloxy)isoquinoline-6-carboxamide]	256	–
CC(C)Oc1cc2c(OC[C@@]34CNC[C@@H]3C4)nccc2cc1C(N)=O [Example 140, 1-[(1R,5R)-3-azabicyclo[3.1.0]hex-1-ylmethoxy]-7-(propan-2-yloxy)isoquinoline-6-carboxamide]	84	–
CC(C)Oc1cc2c(OC[C@@H]3CC(CO)C(=O)N3)nccc2cc1C(N)=O (stereo partly drawn) [Example 148, 1-{[(2S)-4-(hydroxymethyl)-5-oxopyrrolidin-2-yl]methoxy}-7-(propan-2-yloxy)isoquinoline-6-carboxamide]	24	–
CC(C)Oc1cc2c(OC[C@H]3COCCN3)nccc2cc1C(N)=O [Example 158, 1-[(3R)-morpholin-3-ylmethoxy]-7-(propan-2-yloxy)isoquinoline-6-carboxamide]	1440	–
CC(C)Oc1cc2c(OCC3CCCN3)nccc2cc1C(N)=O (stereo not shown) [Example 159, 7-(propan-2-yloxy)-1-(pyrrolidin-2-ylmethoxy)isoquinoline-6-carboxamide]	3380	–
CC(C)Oc1cc2c(OC[C@@H]3COCCN3)nccc2cc1C(N)=O [Example 160, 1-[(3S)-morpholin-3-ylmethoxy]-7-(propan-2-yloxy)isoquinoline-6-carboxamide]	151	–
CC(C)Oc1cc2c(OC[C@@]34CNCC[C@@H]3C4)nccc2cc1C(N)=O [Example 161, 1-[(1R,6S)-3-azabicyclo[4.1.0]hept-1-ylmethoxy]-7-(propan-2-yloxy)isoquinoline-6-carboxamide]	88	–
CC(C)Oc1cc2c(OC[C@]34CNCC[C@H]3C4)nccc2cc1C(N)=O [Example 162, 1-[(1S,6R)-3-azabicyclo[4.1.0]hept-1-ylmethoxy]-7-(propan-2-yloxy)isoquinoline-6-carboxamide]	35	–
CC(C)Oc1cc2c(OC[C@H]3NC(=O)[C@@H]4OC(C)(C)O[C@H]34)nccc2cc1C(N)=O [Example 167, 1-{[(3aR,4R,6aR)-2,2-dimethyl-6-oxotetrahydro-3aH-[1,3]dioxolo[4,5-c]pyrrol-4-yl]methoxy}-7-(propan-2-yloxy)isoquinoline-6-carboxamide]	19	–
COc1cc2c(OC[C@@H]3CCC(=O)N3)cccc2cc1C(N)=O [Example 173, 3-methoxy-5-{[(2S)-5-oxopyrrolidin-2-yl]methoxy}naphthalene-2-carboxamide]	–	% inhib TNF (serum TNF; Dose 30 mpk): 55%; % inhib TNF (serum TNF; Dose 100 mpk): 98%
CC(C)Oc1cc2c(OC[C@]34CNC(=O)[C@H]3C4)nccc2cc1C(N)=O [Example 175, 1-{[(1S,5S)-4-oxo-3-azabicyclo[3.1.0]hex-1-yl]methoxy}-7-(propan-2-yloxy)isoquinoline-6-carboxamide]	101	–
CC(C)Oc1cc2c(OC[C@@H]3C[C@](O)(CC(F)(F)F)C(=O)N3)nccc2cc1C(N)=O [Example 184, 1-{[(2S,4S)-4-hydroxy-5-oxo-4-(2,2,2-trifluoroethyl)pyrrolidin-2-yl]methoxy}-7-(propan-2-yloxy)isoquinoline-6-carboxamide]	60	–
COc1cc2c(OC[C@H]3NC(=O)[C@@H](F)[C@H]3C)nccc2cc1C(N)=O [Example 189, 1-{[(2S,3S,4S)-4-fluoro-3-methyl-5-oxopyrrolidin-2-yl]methoxy}-7-methoxyisoquinoline-6-carboxamide]	–	% inhib TNF (serum TNF; Dose 30 mpk): 40%; IC50 [3]: 12 nM
CC(C)Oc1cc2c(OCC3CCNC3)nccc2cc1C(N)=O (stereo not shown) [Example 191, 7-(propan-2-yloxy)-1-(pyrrolidin-3-ylmethoxy)isoquinoline-6-carboxamide]	252	–
COc1cc2c(OC[C@@H]3C[C@](C)(F)C(=O)N3)cccc2cc1C(N)=O [Example 194, 5-{[(2S,4S)-4-fluoro-4-methyl-5-oxopyrrolidin-2-yl]methoxy}-3-methoxynaphthalene-2-carboxamide]	–	% inhib TNF (serum TNF; Dose 30 mpk): 76%; IC50 [2]: 1 nM; IC50 [3]: 5.2 nM
COc1cc2c(OC[C@@H]3NC(=O)CC3(C)C)nccc2cc1C(N)=O [Example 222, 1-{[(2R)-3,3-dimethyl-5-oxopyrrolidin-2-yl]methoxy}-7-methoxyisoquinoline-6-carboxamide]	1870	–
CC(C)Oc1cc2c(OC[C@@H]3NC(=O)CC3(C)C)nccc2cc1C(N)=O [Example 223, 1-{[(2R)-3,3-dimethyl-5-oxopyrrolidin-2-yl]methoxy}-7-(propan-2-yloxy)isoquinoline-6-carboxamide]	15	–
